Test [1] concerns MV-4-11 human acute myeloid leukemia. Kind of test: MV-4-11 CCK-8 proliferation assay. To be noted: MV-4-11 cells, 72 hr. The format is cell-based. As to the method: (§1) The following cancer cell lines were employed: A549 human lung carcinoma (ATCC, #CCL-185); BT-474 human breast carcinoma (ATCC, #HTB-20); MDA-MB-231 human breast adenocarcinoma (ATCC, #CRM−HTB-26); MDA-MB-468 human breast adenocarcinoma (ATCC, #HTB-132); MV-4-11 human acute myeloid leukemia (ATCC, #CRL-9591); and U-87 MG human glioblastoma (ATCC, #HTB-14). Cell lines were cultured essentially according to ATCC recommendations.
(§2) 3-fold serial dilutions of each test compound were prepared ranging from 20 μM to 1.02 nM.
(§3) % Inhibition=100−(D−B)/(S−B)*100%. • S: Absorbance of cells treated with DMSO • D: Absorbance of compound-treated cells • B: Absorbance of medium with DMSO without cells
Background: Tetrazolium dyes change colour on reduction, which living cells bring about.

The test system of test [2] is U-87 MG human glioblastoma. Put plainly: U87 MG CCK-8 proliferation assay. The format is cell-based. To be noted: U-87 MG cells, read-out: U87MG CCK-8. The protocol: as §1, §2, §3

Read-outs that look alike come from different tables or passages of the source. Some results are limits rather than exact numbers.

The source of these data is patent US20240124460A1, “METHODS AND COMPOSITIONS FOR TARGETED PROTEIN DEGRADATION” (Ranok Therapeutics (Hangzhou) Co. Ltd., priority 2020, published 2024).

Take `CCOc1cc(N2CCC(C(=O)N3CCC(CN4CCC(Oc5ccc(-c6ccc(NC(=O)c7ccc(OC)c(-c8cccc(OC)c8)c7)cc6)cc5)CC4)CC3)CC2)ccc1Nc1ncc2c(n1)N(C)c1ccccc1C(=O)N2C` [Compound 154, N-(4′-((1-((1-(1-(4-((5,11-dimethyl-6-oxo-6,11-dihydro-5H-benzo[e]pyrimido[5,4-b][1,4]diazepin-2-yl)amino)-3-ethoxyphenyl)piperidine-4-carbonyl)piperidin-4-yl)methyl)piperidin-4-yl)oxy)-[1,1′-biphenyl]-4-yl)-3′,6-dimethoxy-[1,1′-biphenyl]-3-carboxamide]: the EC50 in test [1] (Homo sapiens, MV4-11) was greater than 1000 nM.
Regarding `CCOc1cc(N2CCC(C(=O)N3CCC(CN4CCN(Cc5ccc(-n6c(C(=O)N[C@H](C)C(F)(F)F)nnc6-c6cc(CC)c(O)cc6O)cc5)CC4)CC3)CC2)ccc1Nc1ncc2c(n1)N(S(C)(=O)=O)c1ccccc1C(=O)N2C` [Compound 176, (R)-4-(4-((4-((1-(1-(3-ethoxy-4-((5-methyl-11-(methylsulfonyl)-6-oxo-6,11-dihydro-5H-benzo[e]pyrimido[5,4-b][1,4]diazepin-2-yl)amino)phenyl)piperidine-4-carbonyl)piperidin-4-yl)methyl)piperazin-1-yl)methyl)phenyl)-5-(5-ethyl-2,4-dihydroxyphenyl)-N-(1,1,1-trifluoropropan-2-yl)-4H-1,2,4-triazole-3-carboxamide], the EC50 in test [2] (72 hr) lay in the range of 100 to 1000 nM.
Regarding `CCOc1cc(N2CCC(C(=O)N3CCC(CN4CCC(Oc5ccc(-c6ccc(NC(=O)c7ccc(OC)c(-c8cccc(OC)c8)c7)cc6)cc5)CC4)CC3)CC2)ccc1Nc1ncc2c(n1)N(S(C)(=O)=O)c1ccccc1C(=O)N2C` [Compound 156, N-(4′-((1-((1-(1-(3-ethoxy-4-((5-methyl-11-(methylsulfonyl)-6-oxo-6,11-dihydro-5H-benzo[e]pyrimido[5,4-b][1,4]diazepin-2-yl)amino)phenyl)piperidine-4-carbonyl)piperidin-4-yl)methyl)piperidin-4-yl)oxy)-[1,1′-biphenyl]-4-yl)-3′,6-dimethoxy-[1,1′-biphenyl]-3-carboxamide], the EC50 in test [1] (Homo sapiens, MV4-11) is greater than 1000 nM.
Consider `CCOc1cc(N2CCC(C(=O)N3CCC(N4CCN(Cc5ccc(-n6c(O)nnc6-c6cc(C(C)C)c(O)cc6O)cc5F)CC4)CC3)CC2)ccc1Nc1ncc2c(n1)N(C)c1ccccc1C(=O)N2C` [Compound 033, 2-((4-(4-(4-(4-(4-(3-(2,4-dihydroxy-5-isopropylphenyl)-5-hydroxy-4H-1,2,4-triazol-4-yl)-2-fluorobenzyl)piperazin-1-yl)piperidine-1-carbonyl)piperidin-1-yl)-2-ethoxyphenyl)amino)-5,11-dimethyl-5,11-dihydro-6H-benzo[e]pyrimido[5,4-b][1,4]diazepin-6-one], for which the EC50 in test [2] (Homo sapiens, U-87 MG, 72 h) lay within 100 to 1000 nM.
In test [1], `CCOc1cc(N2CCC(C(=O)N3CCC(CN4CCN(Cc5ccc(-n6c(C(=O)N[C@@H](C)C(F)(F)F)nnc6-c6cc(CC)c(O)cc6O)cc5)CC4)CC3)CC2)ccc1Nc1ncc2c(n1)N(S(C)(=O)=O)c1ccccc1C(=O)N2C` [Compound 177, (S)-4-(4-((4-((1-(1-(3-ethoxy-4-((5-methyl-11-(methylsulfonyl)-6-oxo-6,11-dihydro-5H-benzo[e]pyrimido[5,4-b][1,4]diazepin-2-yl)amino)phenyl)piperidine-4-carbonyl)piperidin-4-yl)methyl)piperazin-1-yl)methyl)phenyl)-5-(5-ethyl-2,4-dihydroxyphenyl)-N-(1,1,1-trifluoropropan-2-yl)-4H-1,2,4-triazole-3-carboxamide] gave an EC50 of less than 100 nM.
In turn, `CCOc1cc(N2CCC(C(=O)N3CCC(CN4CCC(Oc5ccc(-c6ccc(NC(=O)c7ccc(OC)c(-c8cccc(OC)c8)c7)cc6)c(OCCCN(C)C)c5)CC4)CC3)CC2)ccc1Nc1ncc2c(n1)N(C)c1ccccc1C(=O)N2C` [Compound 153, N-(4′-((1-((1-(1-(4-((5,11-dimethyl-6-oxo-6,11-dihydro-5H-benzo[e]pyrimido[5,4-b][1,4]diazepin-2-yl)amino)-3-ethoxyphenyl)piperidine-4-carbonyl)piperidin-4-yl)methyl)piperidin-4-yl)oxy)-2′-(3-(dimethylamino)propoxy)-[1,1′-biphenyl]-4-yl)-3′,6-dimethoxy-[1,1′-biphenyl]-3-carboxamide] gave an EC50 in test [1] (Homo sapiens, MV4-11) greater than 1000 nM.
On the same count and under the same terms, the result for `CCOc1cc(N2CCC(C(=O)NCCCOc3ccc(-c4ccc(NC(=O)c5ccc(OC)c(-c6cccc(OC)c6)c5)cc4)c(OCCCN(C)C)c3)CC2)ccc1Nc1ncc2c(n1)N(S(C)(=O)=O)c1ccccc1C(=O)N2C` [Compound 157, N-(3-((4′-(3′,6-dimethoxy-[1,1′-biphenyl]-3-carboxamido)-2-(3-(dimethylamino)propoxy)-[1,1′-biphenyl]-4-yl)oxy)propyl)-1-(3-ethoxy-4-((5-methyl-11-(methylsulfonyl)-6-oxo-6,11-dihydro-5H-benzo[e]pyrimido[5,4-b][1,4]diazepin-2-yl)amino)phenyl)piperidine-4-carboxamide] reads greater than 1000 nM.
In the case of `CCOc1cc(N2CCC(C(=O)N3CCC(COc4ccc(-c5ccc(NC(=O)c6ccc(OC)c(-c7cccc(OC)c7)c6)cc5)c(OCCCN(C)C)c4)CC3)CC2)ccc1Nc1ncc2c(n1)N(C)c1ccccc1C(=O)N2C` [Compound 151, N-(4′-((1-(1-(4-((5,11-dimethyl-6-oxo-6,11-dihydro-5H-benzo[e]pyrimido[5,4-b][1,4]diazepin-2-yl)amino)-3-ethoxyphenyl)piperidine-4-carbonyl)piperidin-4-yl)methoxy)-2′-(3-(dimethylamino)propoxy)-[1,1′-biphenyl]-4-yl)-3′,6-dimethoxy-[1,1′-biphenyl]-3-carboxamide], the EC50 in test [2] (Homo sapiens, U-87 MG, 72 h) was greater than 1000 nM.
Consider `CCOc1cc(N2CCC(C(=O)N3CCC(COc4ccc(-c5ccc(NC(=O)c6ccc(OC)c(-c7cccc(OC)c7)c6)cc5)c(OCCCN(C)C)c4)CC3)CC2)ccc1Nc1ncc2c(n1)N(S(C)(=O)=O)c1ccccc1C(=O)N2C` [Compound 158, N-(2′-(3-(dimethylamino)propoxy)-4′-((1-(1-(3-ethoxy-4-((5-methyl-11-(methylsulfonyl)-6-oxo-6,11-dihydro-5H-benzo[e]pyrimido[5,4-b][1,4]diazepin-2-yl)amino)phenyl)piperidine-4-carbonyl)piperidin-4-yl)methoxy)-[1,1′-biphenyl]-4-yl)-3′,6-dimethoxy-[1,1′-biphenyl]-3-carboxamide], for which the EC50 in test [1] (Homo sapiens, MV4-11) was greater than 1000 nM.
Still for that read-out and setting: the result for `CCOc1cc(N2CCC(C(=O)N3CCC(CN4CCC(Oc5ccc(-c6ccc(NC(=O)c7ccc(OC)c(-c8cccc(OC)c8)c7)cc6)c(OCCCN(C)C)c5)CC4)CC3)CC2)ccc1Nc1ncc2c(n1)N(S(C)(=O)=O)c1ccccc1C(=O)N2C` [Compound 155, N-(2′-(3-(dimethylamino)propoxy)-4′-((1-((1-(1-(3-ethoxy-4-((5-methyl-11-(methylsulfonyl)-6-oxo-6,11-dihydro-5H-benzo[e]pyrimido[5,4-b][1,4]diazepin-2-yl)amino)phenyl)piperidine-4-carbonyl)piperidin-4-yl)methyl)piperidin-4-yl)oxy)-[1,1′-biphenyl]-4-yl)-3′,6-dimethoxy-[1,1′-biphenyl]-3-carboxamide] reads greater than 1000 nM.
